Test results from ChEMBL document CHEMBL4706599, “Discovery of novel quinazoline derivatives as potent PI3Kδ inhibitors with high selectivity” (Eur J Med Chem, 2020).

How the values were obtained:
[1] = target: T1, Phosphatidylinositol 4,5-bisphosphate 3-kinase catalytic subunit delta isoform (Homo sapiens, UniProt O00329); assay: Inhibition of PI3Kdelta (unknown origin) by ADP-Glo kinase assay
T1 sequence (O00329 whole entry): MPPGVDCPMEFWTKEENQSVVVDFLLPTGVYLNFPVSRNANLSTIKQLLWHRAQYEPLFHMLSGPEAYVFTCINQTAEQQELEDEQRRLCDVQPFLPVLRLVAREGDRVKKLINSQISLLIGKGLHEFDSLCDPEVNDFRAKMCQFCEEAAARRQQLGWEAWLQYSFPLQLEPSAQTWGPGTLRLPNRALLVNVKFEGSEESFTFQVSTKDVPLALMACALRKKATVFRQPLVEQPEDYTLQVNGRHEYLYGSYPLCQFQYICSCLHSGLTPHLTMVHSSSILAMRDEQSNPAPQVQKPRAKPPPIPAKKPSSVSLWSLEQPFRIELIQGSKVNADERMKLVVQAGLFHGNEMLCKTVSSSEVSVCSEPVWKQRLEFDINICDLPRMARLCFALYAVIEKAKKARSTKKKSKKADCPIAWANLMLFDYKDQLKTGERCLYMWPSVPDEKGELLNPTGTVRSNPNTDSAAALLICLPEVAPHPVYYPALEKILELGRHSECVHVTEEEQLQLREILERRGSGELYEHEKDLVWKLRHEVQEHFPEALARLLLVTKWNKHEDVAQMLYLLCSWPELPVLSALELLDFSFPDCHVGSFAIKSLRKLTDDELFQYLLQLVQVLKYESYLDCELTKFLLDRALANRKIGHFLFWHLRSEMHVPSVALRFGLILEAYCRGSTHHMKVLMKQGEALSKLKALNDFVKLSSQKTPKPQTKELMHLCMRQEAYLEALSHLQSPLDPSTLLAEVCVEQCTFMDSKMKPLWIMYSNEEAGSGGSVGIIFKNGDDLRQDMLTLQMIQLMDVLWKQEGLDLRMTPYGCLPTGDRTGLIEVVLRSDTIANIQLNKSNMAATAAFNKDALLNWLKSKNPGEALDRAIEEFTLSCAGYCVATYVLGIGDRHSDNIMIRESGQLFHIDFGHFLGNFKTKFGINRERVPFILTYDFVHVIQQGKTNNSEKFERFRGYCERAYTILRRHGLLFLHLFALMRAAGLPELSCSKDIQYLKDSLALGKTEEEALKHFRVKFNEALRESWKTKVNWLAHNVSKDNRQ

Raji [2] = assay: Antiproliferative activity against human Raji cells assessed as inhibition of cell growth after 48 hrs by MTT assay; assay type: functional, cell-based
Ramos = assay: Antiproliferative activity against human Ramos cells assessed as inhibition of cell growth after 48 hrs by MTT assay; assay type: functional, cell-based
[3] = target: T2, Phosphatidylinositol 4,5-bisphosphate 3-kinase catalytic subunit delta isoform (Homo sapiens) (UniProt O00329); assay: Inhibition of PI3Kdelta (unknown origin) at 200 nM by ADP-Glo kinase assay relative to control
T2 sequence (whole entry): T1 sequence (O00329 whole entry)

Raji [4] = assay: Antiproliferative activity against human Raji cells assessed as reduction in cell viability after 24 hrs by MTT assay; assay type: functional, cell-based; conditions: dose 0.2-15 µM
Raji [5] = assay: Antiproliferative activity against human Raji cells assessed as reduction in cell viability at 10 uM by MTT assay; assay type: functional, cell-based; conditions: TDE = time-dependent effect
Raji [6] = assay: Antiproliferative activity against human Raji cells assessed as reduction in cell viability at 10 uM after 24 hrs by MTT assay; assay type: functional
Raji [7] = assay: Induction of apoptosis in human Raji cells assessed as late apoptotic cells at 5 uM measured after 24 hrs by Annexin V-FITC/PI staining based flow cytometry (reference value: 2.11 %); assay type: functional
Raji [8] = assay: Inhibition of PI3K/Akt signalling pathway in human Raji cells assessed as reduction in Akt phosphorylation at Ser473 residue after 24 hrs by Western blot analysis; assay type: cell-based; conditions: dose 1-1000 nM
[9] = target: Phosphatidylinositol 4,5-bisphosphate 3-kinase catalytic subunit alpha isoform (Homo sapiens, UniProt P42336); assay: Inhibition of PI3Kalpha (unknown origin)
Sequence of Phosphatidylinositol 4,5-bisphosphate 3-kinase catalytic subunit alpha isoform (P42336 whole entry, canonical isoform): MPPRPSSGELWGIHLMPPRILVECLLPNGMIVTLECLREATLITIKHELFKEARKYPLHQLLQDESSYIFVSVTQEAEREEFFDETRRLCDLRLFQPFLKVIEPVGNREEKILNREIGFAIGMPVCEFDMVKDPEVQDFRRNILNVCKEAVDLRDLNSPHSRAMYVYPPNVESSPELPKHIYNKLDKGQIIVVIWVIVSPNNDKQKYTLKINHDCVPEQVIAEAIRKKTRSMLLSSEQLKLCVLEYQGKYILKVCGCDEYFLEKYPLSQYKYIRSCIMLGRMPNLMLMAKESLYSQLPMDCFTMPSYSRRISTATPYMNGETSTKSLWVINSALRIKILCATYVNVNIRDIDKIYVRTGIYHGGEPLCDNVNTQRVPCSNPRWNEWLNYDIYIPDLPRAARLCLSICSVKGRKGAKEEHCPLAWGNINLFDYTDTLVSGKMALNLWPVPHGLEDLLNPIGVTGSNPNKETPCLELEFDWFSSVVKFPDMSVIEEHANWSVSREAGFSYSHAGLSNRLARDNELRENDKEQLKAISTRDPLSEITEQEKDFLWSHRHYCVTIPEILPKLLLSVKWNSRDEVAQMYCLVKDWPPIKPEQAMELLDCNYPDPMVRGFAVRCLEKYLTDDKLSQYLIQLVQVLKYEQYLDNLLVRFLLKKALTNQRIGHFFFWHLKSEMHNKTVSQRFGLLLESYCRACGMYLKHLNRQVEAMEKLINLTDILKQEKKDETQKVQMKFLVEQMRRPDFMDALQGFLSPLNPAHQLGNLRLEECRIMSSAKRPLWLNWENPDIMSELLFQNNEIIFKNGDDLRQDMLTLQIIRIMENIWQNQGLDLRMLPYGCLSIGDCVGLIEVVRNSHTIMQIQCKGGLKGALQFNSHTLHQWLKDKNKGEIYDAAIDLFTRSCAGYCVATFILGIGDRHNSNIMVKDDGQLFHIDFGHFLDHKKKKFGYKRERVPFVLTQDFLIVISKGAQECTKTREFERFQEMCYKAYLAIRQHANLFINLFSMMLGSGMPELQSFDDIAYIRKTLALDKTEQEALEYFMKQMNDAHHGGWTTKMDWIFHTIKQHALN

[10] = target: Phosphatidylinositol 4,5-bisphosphate 3-kinase catalytic subunit beta isoform (Homo sapiens, UniProt P42338); assay: Inhibition of PI3Kbeta (unknown origin)
Sequence of Phosphatidylinositol 4,5-bisphosphate 3-kinase catalytic subunit beta isoform (P42338 whole entry, canonical isoform): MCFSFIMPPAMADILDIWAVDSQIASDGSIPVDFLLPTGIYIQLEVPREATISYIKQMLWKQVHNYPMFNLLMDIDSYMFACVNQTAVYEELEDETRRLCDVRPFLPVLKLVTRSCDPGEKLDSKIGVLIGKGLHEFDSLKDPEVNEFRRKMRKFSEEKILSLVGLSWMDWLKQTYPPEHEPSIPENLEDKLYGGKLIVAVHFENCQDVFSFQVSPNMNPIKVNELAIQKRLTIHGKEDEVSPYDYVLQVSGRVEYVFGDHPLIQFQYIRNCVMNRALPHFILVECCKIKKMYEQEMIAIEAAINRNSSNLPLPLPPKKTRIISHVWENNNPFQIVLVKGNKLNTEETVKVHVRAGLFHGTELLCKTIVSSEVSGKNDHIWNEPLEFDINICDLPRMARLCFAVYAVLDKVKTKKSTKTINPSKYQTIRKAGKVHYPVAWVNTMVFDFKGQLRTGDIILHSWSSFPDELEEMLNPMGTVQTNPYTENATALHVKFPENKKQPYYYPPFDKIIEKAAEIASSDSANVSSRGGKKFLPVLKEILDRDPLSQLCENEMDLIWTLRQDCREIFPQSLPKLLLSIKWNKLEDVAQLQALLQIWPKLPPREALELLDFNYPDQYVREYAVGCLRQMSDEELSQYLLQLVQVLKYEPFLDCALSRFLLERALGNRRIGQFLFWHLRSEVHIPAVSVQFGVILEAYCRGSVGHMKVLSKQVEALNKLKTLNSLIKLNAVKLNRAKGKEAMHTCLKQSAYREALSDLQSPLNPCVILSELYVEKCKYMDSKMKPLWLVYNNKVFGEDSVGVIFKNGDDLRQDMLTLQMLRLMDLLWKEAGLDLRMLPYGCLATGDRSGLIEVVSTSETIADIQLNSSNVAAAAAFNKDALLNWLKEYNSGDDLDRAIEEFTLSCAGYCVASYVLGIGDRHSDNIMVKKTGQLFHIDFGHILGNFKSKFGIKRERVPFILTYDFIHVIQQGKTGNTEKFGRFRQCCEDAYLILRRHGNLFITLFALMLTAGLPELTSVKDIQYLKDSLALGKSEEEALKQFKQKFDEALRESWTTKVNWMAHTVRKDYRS

[11] = target: Phosphatidylinositol 4,5-bisphosphate 3-kinase catalytic subunit gamma isoform (Homo sapiens, UniProt P48736); assay: Inhibition of PI3Kgamma (unknown origin)
Sequence of Phosphatidylinositol 4,5-bisphosphate 3-kinase catalytic subunit gamma isoform (P48736 whole entry, canonical isoform): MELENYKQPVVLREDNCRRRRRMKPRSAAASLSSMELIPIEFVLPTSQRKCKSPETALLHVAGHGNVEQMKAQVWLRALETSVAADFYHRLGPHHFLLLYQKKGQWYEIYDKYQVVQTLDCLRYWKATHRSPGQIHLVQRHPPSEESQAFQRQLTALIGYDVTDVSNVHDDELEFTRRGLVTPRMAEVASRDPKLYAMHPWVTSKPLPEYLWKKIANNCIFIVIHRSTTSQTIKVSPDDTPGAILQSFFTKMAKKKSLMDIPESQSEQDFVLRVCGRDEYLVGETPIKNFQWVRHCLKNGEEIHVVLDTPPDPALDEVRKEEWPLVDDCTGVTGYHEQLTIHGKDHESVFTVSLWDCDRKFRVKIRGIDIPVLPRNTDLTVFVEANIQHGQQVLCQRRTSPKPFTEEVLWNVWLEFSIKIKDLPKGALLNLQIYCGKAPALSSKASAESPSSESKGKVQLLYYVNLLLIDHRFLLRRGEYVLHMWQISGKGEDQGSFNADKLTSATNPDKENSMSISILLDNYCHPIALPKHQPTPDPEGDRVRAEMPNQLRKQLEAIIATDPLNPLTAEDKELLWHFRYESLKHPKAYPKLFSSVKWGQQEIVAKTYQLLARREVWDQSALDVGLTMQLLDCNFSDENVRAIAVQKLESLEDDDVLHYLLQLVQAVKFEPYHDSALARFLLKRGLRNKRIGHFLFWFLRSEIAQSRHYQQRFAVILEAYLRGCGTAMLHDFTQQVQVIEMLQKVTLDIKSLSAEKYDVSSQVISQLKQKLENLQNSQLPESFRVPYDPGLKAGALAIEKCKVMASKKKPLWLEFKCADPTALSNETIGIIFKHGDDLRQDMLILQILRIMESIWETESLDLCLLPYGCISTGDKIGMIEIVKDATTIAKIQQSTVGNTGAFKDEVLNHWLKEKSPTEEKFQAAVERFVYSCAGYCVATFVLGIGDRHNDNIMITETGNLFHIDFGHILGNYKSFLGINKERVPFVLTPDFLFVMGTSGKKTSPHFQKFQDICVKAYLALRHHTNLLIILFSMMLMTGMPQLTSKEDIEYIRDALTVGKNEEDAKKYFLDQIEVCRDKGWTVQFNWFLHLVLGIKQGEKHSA

Homo sapiens [12] = species on record: Homo sapiens; assay: Selectivity index, ratio of IC50 for PI3Kalpha (unknown origin) to IC50 for PI3Kdelta (unknown origin)
Homo sapiens [13] = species on record: Homo sapiens; assay: Selectivity index, ratio of IC50 for PI3Kbeta (unknown origin) to IC50 for PI3Kdelta (unknown origin)
Homo sapiens [14] = species on record: Homo sapiens; assay: Selectivity index, ratio of IC50 for PI3Kgamma (unknown origin) to IC50 for PI3Kdelta (unknown origin)
[15] = Metabolic stability in human liver microsomes assessed as compound remaining at 1 uM measured up to 45 mins in presence of NADPH by LC/MS analysis; assay type: ADME, Microsome; conditions: 0.75 h
[16] = Metabolic stability in rat liver microsomes assessed as compound remaining at 1 uM measured up to 45 mins in presence of NADPH by LC/MS analysis; assay type: ADME, Microsome; conditions: 0.75 h

| IC50 [1] [µM] | IC50 (Raji [2]) [µM] | IC50 (Ramos) [µM] | inhibition [3] [%] | Structure (SMILES) | other results |
| --- | --- | --- | --- | --- | --- |
| – | 11 | 11 | 23.4 | C=CC(=O)Nc1cccc(Oc2ncnc3ccc(-c4ccc(F)nc4)cc23)c1 | – |
| – | – | 10.1 | 33.1 | C=CC(=O)Nc1cccc(Oc2ncnc3ccc(-c4ccc(Cl)nc4)cc23)c1 | – |
| – | > 50 | – | 46.6 | C=CC(=O)Nc1cccc(Nc2ncnc3ccc(-c4ccc(F)nc4)cc23)c1 | – |
| – | 8.6 | 10.6 | 29.5 | C=CC(=O)Nc1cccc(Oc2ncnc3ccc(-c4cnc5ccccc5c4)cc23)c1 | – |
| 0.104 | 11.6 | – | 64.6 | C=CC(=O)Nc1cccc(Nc2ncnc3ccc(-c4ccc(Cl)nc4)cc23)c1 | – |
| – | 14.8 | 9.4 | 41.8 | C=CC(=O)Nc1cccc(Oc2ncnc3ccc(-c4cccnc4)cc23)c1 | – |

The remaining lines, values behind:

| Structure (SMILES) | IC50 [1] [µM] | IC50 (Raji [2]) [µM] | IC50 (Ramos) [µM] | inhibition [3] [%] | other results |
| --- | --- | --- | --- | --- | --- |
| C=CC(=O)Nc1cccc(Nc2ncnc3ccc(-c4cnc5ccccc5c4)cc23)c1 | 0.117 | 3.5 | > 50 | – | – |
| C/C=C/C(=O)Nc1cccc(Nc2ncnc3ccc(-c4cnc5ccccc5c4)cc23)c1 | 0.129 | 2.7 | 5 | – | – |
| C=CC(=O)Nc1cc(Nc2ncnc3ccc(-c4cnc5ccccc5c4)cc23)ccc1C | 0.0275 | 8.5 | 5.4 | – | Activity (Raji [4]): Dose-dependent effect; Activity (Raji [5]): Tde; Activity (Raji [6]): >50%; Activity (Raji [7]): 10.78%; inhibition (Raji [8]): Dose-dependent effect; IC50 [9]: 0.561 µM; IC50 [10]: 19.6 µM; IC50 [11]: 1.25 µM; Ratio IC50 (Homo sapiens [12]): 20; Ratio IC50 (Homo sapiens [13]): 300; Ratio IC50 (Homo sapiens [14]): 45; Stabilty [15]: Unstable; Stabilty [16]: Unstable |
| CC#CC(=O)Nc1cccc(Nc2ncnc3ccc(-c4cnc5ccccc5c4)cc23)c1 | 0.41 | – | > 50 | – | – |
| Cn1c(=O)n(-c2ccc(C(C)(C)C#N)cc2)c2c3cc(-c4cnc5ccccc5c4)ccc3ncc21 [DACTOLISIB] | – | 0.3 | 0.6 | 66.3 | Activity (Raji [7]): 10.24% |
| CCC(=O)Nc1cccc(Nc2ncnc3ccc(-c4cnc5ccccc5c4)cc23)c1 | 0.021 | – | – | – | – |
| C=CC(=O)N1CCc2ccc(Nc3ncnc4ccc(-c5cnc6ccccc6c5)cc34)cc21 | 0.495 | 0.9 | 17 | – | – |
